From PMC6858848 (Bioorganic & medicinal chemistry letters, 2019)
≈ marks a conversion by molar mass, not a printed value.

Columns and labels:
Alzheimer's patients = conditions: cited from earlier work
40 targets, mostly GPCRs = conditions: 10 μM, NIMH PDSP
hepG2 cells = conditions: CellTiter-Glo
[1] = cited from earlier work
Kv7.2 channels = Kv7.2 channels (Homo sapiens, UniProt O43526); assay: Kv7.2 thallium flux assay in HEK 293 cells; assay type: cell-based; conditions: for fold lower potency in Kv7.2 assay relative to DMP 543: compared with DMP 543
Sequence of Kv7.2 channels (O43526 whole entry): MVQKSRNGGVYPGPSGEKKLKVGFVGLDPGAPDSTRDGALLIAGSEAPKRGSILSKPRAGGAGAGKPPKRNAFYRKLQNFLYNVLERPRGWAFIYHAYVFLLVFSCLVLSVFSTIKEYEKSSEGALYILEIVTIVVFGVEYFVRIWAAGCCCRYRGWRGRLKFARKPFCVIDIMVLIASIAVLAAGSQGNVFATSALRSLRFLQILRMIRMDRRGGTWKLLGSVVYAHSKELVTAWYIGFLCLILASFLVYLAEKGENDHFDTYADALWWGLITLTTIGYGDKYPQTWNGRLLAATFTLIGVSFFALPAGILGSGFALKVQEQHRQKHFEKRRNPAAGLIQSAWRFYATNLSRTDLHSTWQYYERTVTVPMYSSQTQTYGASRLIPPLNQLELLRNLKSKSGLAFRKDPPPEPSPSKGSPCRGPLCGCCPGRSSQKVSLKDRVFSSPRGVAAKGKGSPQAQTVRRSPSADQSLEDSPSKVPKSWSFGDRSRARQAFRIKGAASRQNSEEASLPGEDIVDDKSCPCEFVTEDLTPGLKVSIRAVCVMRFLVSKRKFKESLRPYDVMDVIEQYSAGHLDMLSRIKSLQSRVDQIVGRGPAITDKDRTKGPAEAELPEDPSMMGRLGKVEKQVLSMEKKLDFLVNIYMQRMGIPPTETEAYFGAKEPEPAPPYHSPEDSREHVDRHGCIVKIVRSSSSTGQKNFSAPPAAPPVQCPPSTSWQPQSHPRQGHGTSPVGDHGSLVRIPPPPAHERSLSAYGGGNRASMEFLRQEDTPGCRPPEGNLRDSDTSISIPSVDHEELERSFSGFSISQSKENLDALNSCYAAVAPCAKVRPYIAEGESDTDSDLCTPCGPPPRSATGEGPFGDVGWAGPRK

Acid stability = assay type: physicochemical; conditions: HPLC peak areas (254 nm) after heating at 60°C in 1:1 MeCN:0.2N aq. HCl for 24 h, 0.3 mM
hERG channels = hERG channels (Homo sapiens, UniProt Q12809); assay: hERG thallium flux assay in HEK 293 cells; conditions: for hERG flux IC50: HEK 293 cells expressing hERG channels
Sequence of hERG channels (Q12809 whole entry): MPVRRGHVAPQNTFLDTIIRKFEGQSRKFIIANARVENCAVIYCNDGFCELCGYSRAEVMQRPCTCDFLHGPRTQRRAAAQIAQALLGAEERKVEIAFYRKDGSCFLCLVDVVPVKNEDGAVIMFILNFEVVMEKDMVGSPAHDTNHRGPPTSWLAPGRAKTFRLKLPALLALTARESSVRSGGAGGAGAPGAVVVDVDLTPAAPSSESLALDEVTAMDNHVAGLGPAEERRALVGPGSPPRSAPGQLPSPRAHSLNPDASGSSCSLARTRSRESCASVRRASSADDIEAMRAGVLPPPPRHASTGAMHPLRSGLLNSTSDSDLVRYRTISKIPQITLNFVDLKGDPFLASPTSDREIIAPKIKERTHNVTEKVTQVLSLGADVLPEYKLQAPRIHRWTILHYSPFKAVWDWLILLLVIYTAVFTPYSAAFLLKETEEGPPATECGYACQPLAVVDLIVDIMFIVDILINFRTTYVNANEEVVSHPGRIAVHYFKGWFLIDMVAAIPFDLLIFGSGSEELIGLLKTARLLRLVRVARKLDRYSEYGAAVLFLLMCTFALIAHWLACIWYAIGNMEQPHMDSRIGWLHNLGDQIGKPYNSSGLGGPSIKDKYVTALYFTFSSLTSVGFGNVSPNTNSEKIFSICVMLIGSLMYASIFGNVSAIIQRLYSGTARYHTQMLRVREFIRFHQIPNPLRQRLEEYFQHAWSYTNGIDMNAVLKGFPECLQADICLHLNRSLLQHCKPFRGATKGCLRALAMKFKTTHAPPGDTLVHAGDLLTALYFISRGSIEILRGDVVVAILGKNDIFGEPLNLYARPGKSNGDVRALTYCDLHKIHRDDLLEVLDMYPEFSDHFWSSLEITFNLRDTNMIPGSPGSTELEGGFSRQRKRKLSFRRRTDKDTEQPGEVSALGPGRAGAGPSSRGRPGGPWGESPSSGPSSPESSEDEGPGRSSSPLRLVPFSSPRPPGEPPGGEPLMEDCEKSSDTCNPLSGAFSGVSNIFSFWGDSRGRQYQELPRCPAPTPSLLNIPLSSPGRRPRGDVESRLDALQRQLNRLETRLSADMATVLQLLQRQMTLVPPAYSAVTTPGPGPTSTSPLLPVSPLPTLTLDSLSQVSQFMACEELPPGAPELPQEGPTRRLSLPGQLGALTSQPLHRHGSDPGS

[2] = test system: mouse model of Parkinson's disease; conditions: cited from earlier work
ACh release = conditions: read-out: ACh release EC50; cited from earlier work

Q: Which “efficacy as cognitive enhancer in phase 3 trial” value (Alzheimer's patients) does the source give for O=C1N(c2ccccc2)c2ccccc2C1(Cc1ccncc1)Cc1ccncc1 [Linopirdine, 3,3-Bis(4-Pyrindinylmethyl)-1-Phenylindolin-2-One] here?
A: ineffective

Q: What about the “tolerability in phase 3 trial” value (Alzheimer's patients) of the same molecule?
A: well-tolerated

Q: What does the source list for O=C1c2ccccc2C(Cc2ccnc(F)c2)(Cc2ccnc(F)c2)c2ccccc21 [DMP 543, 10,10-Bis[(2-Fluoro-4-Pyridinyl)Methyl]-9(10 H)-Anthracenone]?
A: Off-target activities: number of targets (of 40) with >30% binding (40 targets, mostly GPCRs): 6; cytotoxicity CC50, hepG2 cells (hepG2 cells): low cytotoxicity; aqueous solubility [1]: 6 µM (≈ 2.47 µg/mL); solubility kinetic (physchem): 22 µM (≈ 9.07 µg/mL)

Q: With O=C1c2ccccc2C(Cc2ccnnc2)(Cc2c(F)cncc2F)c2ccccc21 [JDP-107 (18)] as the molecule, how does the IC50 (Kv7.2 channels) read?
A: 180 nM

Q: What about the “fold lower potency in Kv7.2 assay relative to DMP 543” value (Kv7.2 channels) of the same molecule?
A: approximately 3 fold

Q: And the “acid stability, percent remaining” value (Acid stability)?
A: no degradation

Q: And the “Off-target activities: number of targets (of 40) with >30% binding” value (40 targets, mostly GPCRs)?
A: 5

Q: What about the IC50 (hERG channels) of the same molecule?
A: > 32000 nM

Q: What about the “hERG channel inhibition at 1 μM” value (hERG channels; 1 μM, thallium flux) of the same molecule?
A: no inhibition

Q: For O=C1c2ccccc2C(Cc2ccnnc2)(Cc2ccnnc2)c2ccccc21 [compound 7], which “hERG flux IC50” value (hERG channels; thallium flux) is on record?
A: inactive

Q: For O=C1c2ccccc2C(Cc2c(F)cncc2F)(Cc2c(F)cncc2F)c2ccccc21 [compound 6], which “acid stability, percent remaining” value (Acid stability) is on record?
A: no degradation

Q: Which “hERG flux IC50” value (hERG channels; thallium flux) does the source give for Cc1cc(CC2(Cc3ccnc(C)c3)c3ccccc3C(=O)c3ccccc32)ccn1 [compound 8] here?
A: inactive

Q: For O=C1c2ccccc2C(Cc2ccncc2)(Cc2ccncc2)c2ccccc21 [XE991, 10,10-Bis(4-Pyridinylmethyl)-9(10H)-Anthracenone], which neuroprotection [2] is on record?
A: acts as a neuroprotective agent

Q: And the EC50 (ACh release)?
A: 400 nM

Q: What about the IC50 (hERG channels) of the same molecule?
A: > 32000 nM

Q: For O=C1c2ccccc2C(Cc2ccnc(C(F)(F)F)c2)(Cc2ccnc(C(F)(F)F)c2)c2ccccc21 [compound 5], which “fold lower potency in Kv7.2 assay relative to DMP 543” value (Kv7.2 channels) is on record?
A: ~ 100 fold

Q: What about the “hERG flux IC50” value (hERG channels; thallium flux) of the same molecule?
A: inactive
